Reference: patent US7723368B2, “Amino-5-[4-(difluoromethoxy)phenyl]-5-phenylimidazolone compounds for the inhibition of beta-secretase” (Wyeth LLC, priority 2007, dated 2010)

What follows are compounds tested against human BACE1 (Homo sapiens, UniProt P56817) (assay: BACE1 fluorescent kinetic assay (cleavage of peptide substrate WABC-6)). Conditions: Activity Table, Examples 1-108; 10 nM enzyme, 25 μM substrate WABC-6, pH 4.5, room temperature.
Format: biochemical
Protocol: Evaluation of BACE1 Binding Affinity of Test Compounds
Fluorescent Kinetic Assays
Dilution and mixing steps: total reaction volume: 100 μL
100 μM substrate dilution in 1×PBS was prepared, and
Fluorescence Readings: Readings at λex 320 nm and λem 420 nm are taken every 40 sec for 30 min at room temperature and the linear slope for substrate cleavage rate (vi) determined.

Chain of human BACE1 (P56817 46-501): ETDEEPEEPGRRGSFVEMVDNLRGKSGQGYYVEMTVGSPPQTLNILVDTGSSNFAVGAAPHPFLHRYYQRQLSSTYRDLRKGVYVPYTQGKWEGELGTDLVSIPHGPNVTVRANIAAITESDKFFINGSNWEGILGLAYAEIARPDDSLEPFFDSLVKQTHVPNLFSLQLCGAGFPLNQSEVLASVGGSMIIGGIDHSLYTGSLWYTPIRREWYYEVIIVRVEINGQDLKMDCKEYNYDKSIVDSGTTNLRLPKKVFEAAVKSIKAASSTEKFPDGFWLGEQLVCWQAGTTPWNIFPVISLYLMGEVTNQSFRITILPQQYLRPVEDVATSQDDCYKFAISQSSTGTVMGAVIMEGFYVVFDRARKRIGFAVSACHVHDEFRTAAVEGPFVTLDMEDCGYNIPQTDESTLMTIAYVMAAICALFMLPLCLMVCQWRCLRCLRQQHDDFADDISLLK

IC50 [nM] | Structure (SMILES)
< 100 | C=CC(C)COc1cccc([C@@]2(c3ccc(OC(F)F)cc3)N=C(N)N(C)C2=O)c1 (stereo partly drawn) [Example 10F, (4R)-2-amino-4-(4-(difluoromethoxy)phenyl)-1-methyl-4-(3-(2-methylbut-3-enyloxy)phenyl)-1H-imidazol-5(4H)-one]
< 100 | C=CCOc1cccc([C@@]2(c3ccc(OC(F)F)cc3)N=C(N)N(C)C2=O)c1 [Example 10H, (R)-4-(3-(allyloxy)phenyl)-2-amino-4-(4-(difluoromethoxy)phenyl)-1-methyl-1H-imidazol-5(4H)-one]
< 100 | CN1C(=O)[C@@](c2ccc(OC(F)F)cc2)(c2cccc(CCCCC#N)c2)N=C1N [Example 11A, 5-(3-{(4R)-2-amino-4-[4-(difluoromethoxy)phenyl]-1-methyl-5-oxo-4,5-dihydro-1H-imidazol-4-yl}phenyl)pentanenitrile]
< 100 | CN1C(=O)C(c2ccc(OC(F)F)cc2)(c2cccc(C#CCCCF)c2)N=C1N (stereo not shown) [Example 19D, 2-amino-5-[4-(difluoromethoxy)phenyl]-5-[3-(5-fluoropent-1-yn-1-yl)phenyl]-3-methyl-3,5-dihydro-4H-imidazol-4-one]
< 100 | CN1C(=O)[C@@](c2ccc(OC(F)F)cc2)(c2cccc(C#CCCCF)c2)N=C1N [Example 19E, (5R)-2-amino-5-[4-(difluoromethoxy)phenyl]-5-[3-(5-fluoropent-1-yn-1-yl)phenyl]-3-methyl-3,5-dihydro-4H-imidazol-4-one]
< 100 | CN1C(=O)C(c2ccc(OC(F)F)cc2)(c2cccc(C#CCCCCl)c2)N=C1N (stereo not shown) [Example 20B, 2-amino-5-[3-(5-chloropent-1-yn-1-yl)-phenyl]-5-[4-(difluoromethoxy)phenyl]-3-methyl-3,5-dihydro-4H-imidazol-4-one]
110 to 1000 | CC(C)C(=O)Nc1cccc(C2(c3ccc(OC(F)F)cc3)N=C(N)N(C)C2=O)c1 (stereo not shown) [Example 27]
110 to 1000 | CN1C(=O)C(c2ccc(OC(F)F)cc2)(c2cccc(NC(=O)C3CC3)c2)N=C1N (stereo not shown) [Example 28]
> 1000 | CC(C)=CC(=O)Nc1cccc(C2(c3ccc(OC(F)F)cc3)N=C(N)N(C)C2=O)c1 (stereo not shown) [Example 31]
110 to 1000 | CN1C(=O)C(c2ccc(OC(F)F)cc2)(c2cccc(NC(=O)C=Cc3ccccc3)c2)N=C1N (stereo not shown) [Example 32]
110 to 1000 | CN1C(=O)C(c2ccc(OC(F)F)cc2)(c2cccc(NC(=O)COCc3ccccc3)c2)N=C1N (stereo not shown) [Example 34]
< 100 | CN1C(=O)C(c2ccc(OC(F)F)cc2)(c2cccc(NC(=O)C(Cl)(Cl)Cl)c2)N=C1N (stereo not shown) [Example 36]
< 100 | CN1C(=O)C(c2ccc(OC(F)F)cc2)(c2cccc(NC(=O)c3sccc3Br)c2)N=C1N (stereo not shown) [Example 39]
< 100 | CN1C(=O)C(c2ccc(OC(F)F)cc2)(c2cccc(NC(=O)c3coc4ccccc34)c2)N=C1N (stereo not shown) [Example 40]
< 100 | CCCNc1cccc(C2(c3ccc(OC(F)F)cc3)N=C(N)N(C)C2=O)c1 (stereo not shown) [Example 43]
110 to 1000 | COCCC1CC(c2cccc(C3(c4ccc(OC(F)F)cc4)N=C(N)N(C)C3=O)c2)C1 (stereo not shown) [Example 59, 2-amino-5-[4-(difluoromethoxy)phenyl]-5-{3-[3-(2-methoxyethyl)cyclobutyl]phenyl}-3-methyl-3,5-dihydro-4H-imidazol-4-one]

Continued, compound first:

Structure (SMILES) | IC50 [nM]
C=CCCOc1cccc(C2(c3ccc(OC(F)F)cc3)N=C(N)N(C)C2=O)c1 (stereo not shown) [Example 8, 2-amino-5-[3-(but-3-en-1-yloxy)phenyl]-5-[4-(difluoromethoxy)-phenyl]-3-methyl-3,5-dihydro-4H-imidazol-4-one] | < 100
C=CCCOc1cc(C2(c3ccc(OC(F)F)cc3)N=C(N)N(C)C2=O)ccc1F (stereo not shown) [Example 9, 2-amino-5-[3-(but-3-en-1-yloxy)-4-fluorophenyl]-5-[4-(difluoromethoxy)phenyl]-3-methyl-3,5-dihydro-4H-imidazol-4-one] | < 100
C=CCCOc1cccc([C@@]2(c3ccc(OC(F)F)cc3)N=C(N)N(C)C2=O)c1 [Example 10A, (5R)-2-amino-5-[3-(but-3-en-1-yloxy)phenyl]-5-[4-(difluoromethoxy)phenyl]-3-methyl-3,5-dihydro-4H-imidazol-4-one] | < 100
C=CCCOc1cccc([C@]2(c3ccc(OC(F)F)cc3)N=C(N)N(C)C2=O)c1 [Example 10B, (5S)-2-amino-5-[3-(but-3-en-1-yloxy)phenyl]-5-[4-(difluoromethoxy)phenyl]-3-methyl-3,5-dihydro-4H-imidazol-4-one] | 110 to 1000
C=CCCCOc1cccc([C@@]2(c3ccc(OC(F)F)cc3)N=C(N)N(C)C2=O)c1 [Example 10C, (R)-2-amino-4-(4-(difluoromethoxy)phenyl)-1-methyl-4-(3-(pent-4-enyloxy)phenyl)-1H-imidazol-5(4H)-one] | < 100
C=CC[C@@H](C)Oc1cccc([C@@]2(c3ccc(OC(F)F)cc3)N=C(N)N(C)C2=O)c1 [Example 10D, (R)-2-amino-4-(4-(difluoromethoxy)phenyl)-1-methyl-4-(3-((R)-pent-4-en-2-yloxy)phenyl)-1H-imidazol-5(4H)-one] | < 100
C=CC[C@H](C)Oc1cccc([C@@]2(c3ccc(OC(F)F)cc3)N=C(N)N(C)C2=O)c1 [Example 10E, (R)-2-amino-4-(4-(difluoromethoxy)phenyl)-1-methyl-4-(3-((S)-pent-4-en-2-yloxy)phenyl)-1H-imidazol-5(4H)-one] | 110 to 1000
C=C(C)CCOc1cccc([C@@]2(c3ccc(OC(F)F)cc3)N=C(N)N(C)C2=O)c1 [Example 10G, (R)-2-amino-4-(4-(difluoromethoxy)phenyl)-1-methyl-4-(3-(3-methylbut-3-enyloxy)phenyl)-1H-imidazol-5(4H)-one] | < 100
CN1C(=O)[C@](c2ccc(OC(F)F)cc2)(c2cccc(CCCCC#N)c2)N=C1N [Example 11B, 5-(3-{(4S)-2-amino-4-[4-(difluoromethoxy)phenyl]-1-methyl-5-oxo-4,5-dihydro-1H-imidazol-4-yl}phenyl)pentanenitrile] | > 1000
CN1C(=O)[C@](c2ccc(OC(F)F)cc2)(c2cccc(C#CCCCF)c2)N=C1N [Example 19F, (5S)-2-amino-5-[4-(difluoromethoxy)phenyl]-5-[3-(5-fluoropent-1-yn-1-yl)phenyl]-3-methyl-3,5-dihydro-4H-imidazol-4-one] | > 1000
CN1C(=O)C(c2ccc(OC(F)F)cc2)(c2ccc(F)c(C#CCCCCl)c2)N=C1N (stereo not shown) [Example 20A, 2-amino-5-[3-(5-chloropent-1-yn-1-yl)-4-fluorophenyl]-5-[4-(difluoromethoxy)phenyl]-3-methyl-3,5-dihydro-4H-imidazol-4-one] | < 100
CCC(=O)Nc1cccc(C2(c3ccc(OC(F)F)cc3)N=C(N)N(C)C2=O)c1 (stereo not shown) [Example 21] | 110 to 1000
CCCC(=O)Nc1cccc(C2(c3ccc(OC(F)F)cc3)N=C(N)N(C)C2=O)c1 (stereo not shown) [Example 22] | 110 to 1000
CCCCC(=O)Nc1cccc(C2(c3ccc(OC(F)F)cc3)N=C(N)N(C)C2=O)c1 (stereo not shown) [Example 23] | 110 to 1000
CN1C(=O)C(c2ccc(OC(F)F)cc2)(c2cccc(NC(=O)CCCl)c2)N=C1N (stereo not shown) [Example 24] | 110 to 1000
CN1C(=O)C(c2ccc(OC(F)F)cc2)(c2cccc(NC(=O)C(F)(F)F)c2)N=C1N (stereo not shown) [Example 25] | < 100
CC(C)CC(=O)Nc1cccc(C2(c3ccc(OC(F)F)cc3)N=C(N)N(C)C2=O)c1 (stereo not shown) [Example 26] | < 100

Structure (SMILES) | IC50 [nM]
CN1C(=O)C(c2ccc(OC(F)F)cc2)(c2cccc(NC(=O)C3CCC3)c2)N=C1N (stereo not shown) [Example 29] | 110 to 1000
CC=CC(=O)Nc1cccc(C2(c3ccc(OC(F)F)cc3)N=C(N)N(C)C2=O)c1 (stereo not shown) [Example 30] | 110 to 1000
CN1C(=O)C(c2ccc(OC(F)F)cc2)(c2cccc(NC(=O)c3ccco3)c2)N=C1N (stereo not shown) [Example 33] | < 100
CN1C(=O)C(c2ccc(OC(F)F)cc2)(c2cccc(NC(=O)c3ccccc3)c2)N=C1N (stereo not shown) [Example 35] | 110 to 1000
CN1C(=O)C(c2ccc(OC(F)F)cc2)(c2cccc(NC(=O)c3cccs3)c2)N=C1N (stereo not shown) [Example 42] | 110 to 1000
CCCCNc1cccc(C2(c3ccc(OC(F)F)cc3)N=C(N)N(C)C2=O)c1 (stereo not shown) [Example 44] | < 100
CC(C)CNc1cccc(C2(c3ccc(OC(F)F)cc3)N=C(N)N(C)C2=O)c1 (stereo not shown) [Example 45] | < 100
CC(C)Nc1cccc(C2(c3ccc(OC(F)F)cc3)N=C(N)N(C)C2=O)c1 (stereo not shown) [Example 46] | 110 to 1000
CN1C(=O)C(c2ccc(OC(F)F)cc2)(c2cccc(NC3CCCC3)c2)N=C1N (stereo not shown) [Example 47] | < 100
CN1C(=O)C(c2ccc(OC(F)F)cc2)(c2cccc(NC3CCCCC3)c2)N=C1N (stereo not shown) [Example 48] | 110 to 1000
CN1C(=O)C(c2ccc(OC(F)F)cc2)(c2cccc(NC3CCC3)c2)N=C1N (stereo not shown) [Example 50] | 110 to 1000
CN1C(=O)C(c2ccc(OC(F)F)cc2)(c2cccc(NCc3ccco3)c2)N=C1N (stereo not shown) [Example 51] | < 100
CN1C(=O)C(c2ccc(OC(F)F)cc2)(c2cccc(C3CC(=CCO)C3)c2)N=C1N (stereo not shown) [Example 56, 2-amino-5-[4-(difluoromethoxy)phenyl]-5-{3-[3-(2-hydroxyethylidene)cyclobutyl]phenyl}-3-methyl-3,5-dihydro-4H-imidazol-4-one] | > 1000
CN1C(=O)C(c2ccc(OC(F)F)cc2)(c2cccc(C3CC(CCF)C3)c2)N=C1N (stereo not shown) [Example 58, 2-amino-5-[4-(difluoromethoxy)phenyl]-5-{3-[3-(2-fluoroethyl)cyclobutyl]phenyl}-3-methyl-3,5-dihydro-4H-imidazol-4-one] | 110 to 1000
CN1C(=O)C(c2ccc(OC(F)F)cc2)(c2cccc(Nc3ccccc3)c2)N=C1N (stereo not shown) [Example 60, 2-amino-5-(3-anilinophenyl)-5-[4-(difluoromethoxy)phenyl]-3-methyl-3,5-dihydro-4H-imidazol-4-one] | 110 to 1000
CC(C)NCc1cccc(C2(c3ccc(OC(F)F)cc3)N=C(N)N(C)C2=O)c1 (stereo not shown) [Example 61, 2-Amino-5-(4-difluoromethoxy-phenyl)-5-[3-(isopropylamino-methyl)-phenyl]-3-methyl-3,5-dihydro-imidazol-4-one] | 110 to 1000
